Reference: US8685941B2, “Drug composition cytotoxic for pancreatic cancer cells” (University of Central Florida Research Foundation, Inc., priority 2008, dated 2014)
Like-named read-outs stand apart in the source and are kept apart here.

Tests used:
Stat3 [1] = test: Stat3 DNA-binding activity, EMSA of nuclear extracts, Panc-1; format: cell-based, human; conditions: for constitutive Stat3 DNA-binding activity: Panc-1, 24 h treatment; for constitutively-active Stat3 DNA-binding activity: first 30 min to 1 h of treatment
Method: (§1) Nuclear Extract Preparation and Gel Shift Assays.
(§2) Nuclear extract preparation and DNA-binding with electrophoretic mobility shift assay (EMSA) were carried out, as previously reported (14, 15). The ^32P-labeled oligonucleotide probes used were hSIE (high affinity sis-inducible element from the c-fos gene, m67 variant), 5′-[…]; (SEQ ID NO:1) that binds Stat1 and Stat3 (Wagner et al., 1990) and the MGFe (mammary gland factor element from the bovine β-casein gene promoter, 5′-[…]; (SEQ ID NO:2) that binds Stat1 and Stat5 (Gouilleux et al., 1995; Seidel et al., 1995).

Panc-1 or Colo-357 cells = test: Viable cell count by trypan blue exclusion/phase-contrast microscopy; format: cell-based, human
Text: (§3) Cell Proliferation Viability Assay and Annexin V Binding and Flow Cytometry.
(§4) Viable cells were counted by trypan blue exclusion/phase contrast microscopy or assessed by CyQuant cell viability assay, according to manufacturer's (Invitrogen) instructions, or cells were processed for Annexin V binding (BD Biosciences) with flow cytometry for apoptosis.

pErk1/pErk2MAPK and pAkt = test: Immunoblotting for pErk1/pErk2MAPK and pAkt (control studies); format: cell-based, human; conditions: Panc-1 and Colo-357 cells (data not shown)
Method: (§5) SDS-PAGE/Western Blot Analysis.
(§6) Western blotting analysis was performed as previously described (15, 18). Primary antibodies used were anti-Stat3 (C20) (Santa Cruz, Santa Cruz, Calif.), anti-pY845EGFR (Upstate Biotech, Millipore, Billerica, Mass.), and antibodies against pY705Stat3, Stat3, pY1068EGFR, pY1086EGFR, pY1173EGFR, EGFR, pY416Src, Src, c-Myc, and β-Actin from Cell Signaling (Danvers, Mass.). Inhibitors

Colo-357 cells = test: CyQuant cell proliferation/viability assay, Colo-357; format: cell-based; conditions: Homo sapiens
Text: as §3, §4

Panc-1 cells = test: CyQuant cell proliferation/viability assay, Panc-1; format: cell-based; conditions: Homo sapiens
Text: as §3, §4

[2] = tested on: Panc-1 and Colo-357 cells; test: CyQuant cell proliferation/viability assay, statements for both lines
Text: as §3, §4

[3] = tested on: Panc-1 and Colo-357 cells; test: Colony survival assay; format: cell-based, human; conditions: 500 cells per dish, treated once for 48 h
Method: Single-cell suspension of Panc-1 and Colo-357 cells were seeded in 6-cm dishes (500 cells per well) and assayed as previously reported (19), treated the next day with inhibitors for 48 h, and allowed to grow until large colonies were visible. Colonies were stained with crystal violet for 4 h and counted under phase-contrast microscope.

Stat3 [4] = test: Stat3 DNA-binding activity, EMSA of nuclear extracts, Colo-357; format: cell-based, human
Method: as §1, §2

Src = molecular target: T1, Src (Homo sapiens, UniProt P12931); test: Immunoblotting of whole-cell lysates for pY416Src; format: cell-based; conditions: immunoblot, 1 h and 24 h treatment or siRNA knockdown
T1 construct: endogenous in cells; host or cells: Panc-1 and Colo-357 human pancreatic cancer cells
Method: as §5, §6
Small-Interfering RNA (siRNA) Transfection.
siRNA sequences for EGFR and Src were ordered from Dharmacon RNAi Technologies, Thermo Scientific (Lafayette, Colo.).

[5] = 1 μM ZD, 100 nM Das, or 50 μM S3I-201 alone, 24 h
[6] = COLO357, inhibitor alone, 48-h treatment, read-out: IC50 against Colo-357 viability
[7] = PANC-1, inhibitor alone, 48-h treatment, read-out: IC50 against Panc-1 viability
[8] = 48-h treatment with each inhibitor alone

T1 sequence (P12931 whole entry): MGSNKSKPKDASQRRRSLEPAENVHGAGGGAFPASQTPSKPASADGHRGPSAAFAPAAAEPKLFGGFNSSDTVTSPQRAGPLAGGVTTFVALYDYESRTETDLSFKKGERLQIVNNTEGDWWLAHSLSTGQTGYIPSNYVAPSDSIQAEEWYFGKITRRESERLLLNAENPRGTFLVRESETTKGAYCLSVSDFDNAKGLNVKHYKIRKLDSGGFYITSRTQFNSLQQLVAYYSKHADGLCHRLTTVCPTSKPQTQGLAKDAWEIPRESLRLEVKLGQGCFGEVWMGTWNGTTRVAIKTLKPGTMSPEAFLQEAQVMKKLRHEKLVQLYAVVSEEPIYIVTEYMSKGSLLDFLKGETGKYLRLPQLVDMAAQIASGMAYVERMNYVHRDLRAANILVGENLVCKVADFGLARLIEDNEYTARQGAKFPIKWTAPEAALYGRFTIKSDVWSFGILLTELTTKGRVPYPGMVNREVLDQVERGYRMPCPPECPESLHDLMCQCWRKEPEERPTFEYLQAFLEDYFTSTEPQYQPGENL

Row | Compound | constitutive Stat3 DNA-binding activity (Stat3 [1]) | constitutively-active Stat3 DNA-binding activity (Stat3 [1]) | cell viability (viable cell count) (Panc-1 or Colo-357 cells; [5]) | cell viability (viable cell count) (Panc-1 or Colo-357 cells; treatment for 48 to 96 h) | pErk1/pErk2MAPK and pAkt levels (pErk1/pErk2MAPK and pAkt) | IC50 (Colo-357 cells; [6]) [µM] | IC50 (Panc-1 cells; [7]) [µM] | viable cell numbers (fluorescent unit, FU) [2, 8] | colony numbers [3] | Stat3 DNA-binding activity (Stat3 [4]) | other results
1 | N#C/C(=C\c1ccc(O)c(O)c1)C(=O)NCc1ccccc1 [AG490, Tyrphostin AG490] | abolished | no effect | – | – | – | – | – | – | – | – | –
2 | CC(C)(C)c1cc(/C=C(\C#N)C(N)=S)cc(C(C)(C)C)c1O [AG879] | moderately inhibited | early repression | – | – | – | – | – | – | – | – | –
3 | Cc1nc(Nc2ncc(C(=O)Nc3c(C)cccc3Cl)s2)cc(N2CCN(CCO)CC2)n1 [Das, Dasatinib] | rebounded | early repression | minimally affected | progressively decreased | neither of which was significantly affected | 0.09 | 0.1 | decreased viable cell numbers | reduced colony numbers | inhibited | IC50 (Colo-357 cells; COLO357, read-out: IC50 of Das against Colo-357 viability, concurrent treatment with S3I-201, 48-h treatment): 0.008 µM; IC50 (Panc-1 cells; PANC-1, read-out: IC50 of Das against Panc-1 viability, concurrent treatment with S3I-201, 48-h treatment): 0.006 µM; sensitivity of both cell lines to S3I-201 ([2]; co-treatment with Das or ZD, 48 h): increased the sensitivity
4 | C=CC(=O)Nc1cc2c(Nc3cccc(Br)c3)ncnc2cc1OCCCN1CCOCC1 [PD169] | rebounded | early repression | – | – | – | – | – | – | – | – | pY416Src level (Src activity) (Src): no detectable changes
5 | Cc1ccc(S(=O)(=O)OCC(=O)Nc2ccc(C(=O)O)c(O)c2)cc1 [S3I-201] | – | – | minimally affected | progressively decreased | – | 45 | 40 | – | reduced colony numbers | – | IC50 (Colo-357 cells; COLO357, 48 h, read-out: IC50 of S3I-201 on Colo-357 cells): 20 µM; IC50 (Panc-1 cells; PANC-1, 48 h, read-out: IC50 of S3I-201 on Panc-1 cells): 15 µM; viable cell numbers (fluorescent unit, FU) [2]: decreased viable cell numbers; sensitivity of Panc-1 and Colo-357 cells to ZD and Das ([2]; co-treatment with S3I-201, 48 h): increased the sensitivity
6 | COc1cc2ncnc(Nc3ccc(F)c(Cl)c3)c2cc1OCCCN1CCOCC1 [ZD, Gefitinib] | rebounded | early repression | minimally affected | minimal effect | neither of which was significantly affected | – | – | decreased viable cell numbers | not EGFR inhibition (by ZD) resulted in reduced colony numbers | inhibited | number of viable Panc-1 cells (Panc-1 or Colo-357 cells; ZD, 96 h (Day 4), Panc-1): decreased; cell viability ([2]; 1 μM ZD for 48 h): minimal effect
